Assays:
Format in all cases: cell-based
[1] = MT4 cytotoxicity in mock-infected cells (MTT); conditions: human, mock-infected MT-4 cells
Experimental: A rapid and automated assay procedure was used for the in vitro evaluation of anti-HIV agents. An HTLV-1 transformed T4-cell line MT-4, which was previously shown to be highly susceptible to and permissive for HIV infection, served as the target cell line. Inhibition of the HIV-induced cytopathogenic effect was used as the end point. The viability of both HIV- and mock-infected cells was assessed spectrophotometrically via in situ reduction of 3-(4,5-dimethylthiazol-2-yl)-2,5-diphenyltetrazolium bromide (MTT). […] The percent protection achieved by the compound in HIV-infected cells was calculated by the following formula: […]
Examples of inhibition of cell proliferation by particular compounds of the invention can be found by looking at the respective CC50 values in the MT-4 cell line.
(§1) Cells: MT-4 cells (Miyoshi et al., 1982) were grown and maintained in RPMI 1640medium supplemented with 10% heat-inactivated fetal calf serum, 2 mM I-glutamine, 0.1% sodium bicarbonate, and 20æg of gentamicin per ml.

[2] = system: HIV-1 virus (NL4.3 strain); experiment: MT-2 based antiviral assay (S8737E); conditions: Human immunodeficiency virus 1, 72 h; MT2 cells, 3 days, JC53BL β-Gal reporter readout
Source text: MT-2 Based Antiviral Assay (S8737E)
Much like the MT-4 based cytopathic effect assay, this assay is designed to determine the effects of small molecules on the replication of HIV-1 in the lymphobastoid cell line, MT2, and is able to detect the antiviral effect of compounds acting at any stage of the HIV-1 replication cycle. The assay, along with its associated cytotoxicity assay, was described in detail in 2005 in a paper by Cao et al (Antimicrobial Agents and Chemotherapy 2005; 49(9), p 3833-3841).
Briefly; MT2 cells are infected with the HIV-1 virus (NL4.3 strain) and transferred to assay plates containing serial dilutions of compounds to be tested. The assay plates are incubated for 3 days (MT2) to allow for several rounds of viral replication/infection to take place. At the end of this time, supernatant is transferred into new plates containing JC53BL cells.
JC53BL cells express CXCR4, CCR5 and CD4 receptors, and HIV-1-LTR-β-Gal. Under normal culture conditions undetectable levels of β-Galactosidase are expressed, but in the presence of HIV-1, the viral Tat protein is able to activate the HIV-1-LTR in the JC53BL cells resulting in the increased expression of the β-Gal enzyme. The expression can be measured using the ‘FluorAce β-Galactosidase reporter’ assay. The levels of β-Gal are directly proportional to the levels of Tat (up to a threshold) allowing virus quantification. Compounds that inhibit virus replication will give rise to a reduced signal and a dose-response curve for each compound can be generated. This is then used to determine the IC50 for each compound, a measure of the compound's potency, in a manner similar to the MT-4 based cytopathic effect assay.

[3] = in vitro; conditions: human
Experimental: The MT-2 based antiviral assay requires a separate cytotoxicity assessment of the compounds. This was performed using a 3 day MT-2 cytotoxicity assay as follows:
3 Day MT2 Cytotoxicity Assay (S8738E)
The assay is designed to test whether or not compounds have cytotoxic activity in MT2 cells by measuring the viability of these cells in the presence of compounds. The assay is carried out by adding MT2 assay plates containing serial dilutions of the compounds to be screened. After 3 days incubation, the viability of the cells remaining in the plates is assayed using the commercially available reagent CellTiter-Glo (Promega Ltd).

[4] = system: HIV-1(NL4.3); experiment: MT4 based cytopathic effect assay (anti-HIV activity); conditions: Human immunodeficiency virus 1, MT4; HIV-infected MT-4 cells, MTT, 50% protection
Experimental: MT4 based Cytopathic Effect Assay
A rapid and automated assay procedure was used for the in vitro evaluation of anti-HIV agents. An HTLV-1 transformed T4-cell line MT-4, which was previously shown to be highly susceptible to and permissive for HIV infection, served as the target cell line. Inhibition of the HIV-induced cytopathogenic effect was used as the end point. The viability of both HIV- and mock-infected cells was assessed spectrophotometrically via in situ reduction of 3-(4,5-dimethylthiazol-2-yl)-2,5-diphenyltetrazolium bromide (MTT). […] The percent protection achieved by the compound in HIV-infected cells was calculated by the following formula:
[formula] whereby (ODT)HIV is the optical density measured with a given concentration of the test compound in HIV-infected cells; (ODC)HIV is the optical density measured for the control untreated HIV-infected cells; (ODC)MOCK is the optical density measured for the control untreated mock-infected cells; all optical density values were determined at 540 nm. […] The ratio of CC50 to EC50 was defined as the selectivity index (SI).
as §1
Viruses: The HIV-1(NL4.3) strain (Adachi et al., 1986) is a molecular clone obtained from the National Institutes of Health (Bethesda, Md.).

Structure (SMILES)	CC50 [1] [µM]	EC50 [2] [nM]	CC50 at 3 days [3] [µM]	EC50 [4] [nM]
CCCC(C(=O)O)c1c(C)nc2cc3c(cc2c1-c1ccc(C)cc1)CCC3 (centres unmarked) [Cpd012, 2-(2-methyl-4-p-tolyl-7,8-dihydro-6H-cyclopenta[g]quinolin-3-yl)pentanoic acid]	82	1680	> 20	530
CCCC(C(=O)O)c1c(C)nc2c3ccccc3nn2c1-c1ccc(C)cc1 (centres unmarked) [Cpd047, 2-(2-methyl-4-p-tolylpyrimido[1,2-b]indazol-3-yl)pentanoic acid]	200	> 20000	–	–
CCCC(C(=O)O)c1c(C)nc2ccc3c(c2c1-c1ccc(C)cc1)CCCC3 (centres unmarked) [Cpd003, 2-(3-methyl-1-4-p-tolyl-7,8,9,10-tetrahydrobenzo[f]quinolin-2-yl)pentanoic acid]	92	–	–	1450
Cc1ccc(-c2c(C(OC(C)(C)C)C(=O)O)c(C)nc3cc4c(cc23)CCCC4)cc1 (centres unmarked) [Cpd002, tert-butoxy-(2-methyl-4-p-tolyl-6,7,8,9-tetrahydro-benzo[g]quinolin-3-yl)-acetic acid]	–	460	> 10	–
CCCC(C(=O)O)c1c(C)nc2ccc3c(c2c1-c1ccc(C)cc1)CCC3 (centres unmarked) [Cpd023, 2-(3-methyl-1-p-tolyl-8,9-dihydro-7H-cyclopenta[f]quinolin-2-yl)pentanoic acid]	114	–	–	4500
CCCC(C(=O)O)c1c(C)nc2cc3c(cc2c1-c1ccc(C)cc1)CCCC3 (centres unmarked) [Cpd001, 2-(-2-methyl-4-p-tolyl-6,7,8,9-tetrahydrobenzo[g]quinolin-3-yl)pentanoic acid]	92	–	–	1450
